Results published in patent publication US12385042B2, “Cell-penetrating peptides” (VECTIOPEP OÜ, priority 2019, dated 2025).

Test system: U87 MG-luc2 human glioma cells, stably expressing luc2
Experiment: Luciferase gene downregulation by CPP/siRNA (siLuc2) complexes
Assay type: cell-based
Conditions: CPP/siRNA complexes, siRNA against luciferase
Procedure: For assessing the siRNA mediated RNAi, CHO-GFP or U87-luc2 cells (5×10^5 cells per well) were seeded on a 24-well plate a day prior to the experiment and grown in serum containing media. On experiment day, prior to adding pre-formed complexes ( 1/10th of the final volume per well), media was replaced with fresh serum containing medium.
For complex formation, peptide was mixed with luc2 siRNA (sense 5′-[…]-3′ (SEQ ID NO:7), antisense 5′-[…] 3′ (SEQ ID NO:8), Metabion, Germany) or with siRNA against GFP (5′-[…] (SEQ ID NO:9), 3′-[…] (SEQ ID NO:10)) in mQ water (pH 5.3-6.3) using peptide to siRNA molar ratios (MR is the ratio of peptide to siRNA) […] and incubated at RT for 1 h. For siLuc2, the final concentration in media was 25 nM and for siGFP 100 nM. Cells were co-incubated with complexes for 4 h (37° C., 5% CO2), thereafter fresh serum containing media was added and followed by further incubation (20 h for siLuc2 or 44 h for siGFP complexes). Luciferase gene downregulation was measured from cell lysates with Promega luciferase assay system (Promega, Sweden) in combination with GLOMAX 96 microplate luminometer equipped with GLOMAX 1.9.2 software (Promega). GFP was measured after treatment from cell lysates on black 96-well plates by measuring total fluorescence (Symergy MX, BioTek Instruments, USA equipped with Gen5 1.10 software). The results were normalized to the protein content of each sample (DC Protein Assay, BioRad, USA).
Luciferase activity was determined as described in previous paragraph.
For determination of pH dependency on the transfection efficiency, complexes were formed at MR30, incubated and diluted before addition to cells to obtain siRNA final concentration 10 nM in transfection media. HEPES buffer supplemented with 10% FBS was used as transfection media. Complexes were co-incubated with cells for 4 h and then media was replaced with cell growth media. After further 20 h incubation cells were lysed and analyzed as described previously.
The experiment was carried out in serum containing media (10% FBS). CPP/siRNA complexes were formed at different molar ratios with siRNA concentration kept constant (50 nM in transfection media). Luminescence from luciferin-luciferase reaction was measured at 24 hours post-treatment from cell lysate. Results were normalized to protein content and luminescence values from untreated cells (100%).

Substance	Red (%) (reduction, based on remaining luminescence on U87 cells post-treatment)
HHHHHHYLLGO^eILLKALKALAKAIL [NF708, group H6^2 (histidines before tyrosine); C20 fatty acid on N-terminus; C-terminally amidated]	71%
HYHHGO^eILLKALKALAKAIL [NF726, group H3; C20 saturated fatty acid on N-terminus; C-terminally amidated]	50%
HHHHHHYHHGO^eILLKALKALAKAIL [NF721, group H8; C18 saturated fatty acid on N-terminus; C-terminally amidated]	55%
HHYHHGO^eILLKALKALAKAIL [NF712, group H4; C20 saturated fatty acid on N-terminus; C-terminally amidated]	83%
HHYHHGO^eILLKALKALAKAIL [NF717, group H4; C16 saturated fatty acid on N-terminus; C-terminally amidated]	43%
HHHHHHYHHGO^eILLKALKALAKAIL [NF722, group H8; C22 saturated fatty acid on N-terminus; C-terminally amidated]	45%
HHHHHHGO^eILLKALKALAKAIL [NF706, C22 fatty acid on N-terminus; C-terminally amidated]	59%
HHHHHYHHGO^eILLKALKALAKAIL [NF719, group H7; C18 saturated fatty acid on N-terminus; C-terminally amidated]	39%
HHHHHHYLLGO^eILLKALKALAKAIL [NF707, group H6^2 (histidines before tyrosine); C18 fatty acid on N-terminus; C-terminally amidated]	70%
HHHHHYHHGO^eILLKALKALAKAIL [NF724, group H7; C22 saturated fatty acid on N-terminus; C-terminally amidated]	40%
HHHHHHYLLGO^eILLKALKALAKAIL [NF709, group H6^2 (histidines before tyrosine); C22 fatty acid on N-terminus; C-terminally amidated]	55%
HHHHHYHHGO^eILLKALKALAKAIL [NF723, group H7; C20 saturated fatty acid on N-terminus; C-terminally amidated]	49%
HHHHYHHGO^eILLKALKALAKAIL [NF701, group H6; C10 (decanoyl) fatty acid on N-terminus; C-terminally amidated]	20%
HHYHHGO^eILLKALKALAKAIL [NF713, group H4; C22 saturated fatty acid on N-terminus; C-terminally amidated]	47%
HHHHYHHGO^eILLKALKALAKAIL [NF711, group H6; C16 saturated fatty acid on N-terminus; C-terminally amidated]	35%
HHHYHHGO^eILLKALKALAKAIL [NF715, group H5; C18 saturated fatty acid on N-terminus; C-terminally amidated]	62%
HHHYHHGO^eILLKALKALAKAIL [NF718, group H5; C22 saturated fatty acid on N-terminus; C-terminally amidated]	75%
